Starred links: 1 amine or outer side, 2 acyl side, 3 side chain; linkers in the order of their positions; H or OH if unused. Positions of bridges follow the written chain, without caps; N, C: chain ends. Non-standard residues stand in square brackets, D forms with d. Residues, ends and D or L forms follow the SMILES beside them. Chains are numbered I, II in the order given. *: point of attachment. isoGln = NC(=O)[C@H](CCC(=O)[*:2])N[*:1]; εLys = N[C@@H](CCCCN[*:1])C(=O)[*:2]; Dab = NCC[C@H](N)C(=O)O; PhAc = O=C(Cc1ccccc1)*
Columns and labels:
[1] = molecular target: T1, rV1a receptor (Rattus norvegicus, UniProt P30560); test: FLIPR calcium assay, rat V1a (A7r5 cells); type: cell-based; conditions: A7R5, read-out: % MPE
T1 construct: endogenously expressing rV1a; host or cells: A7r5 rat thoracic aorta smooth muscle cells
T1 sequence (P30560 whole entry): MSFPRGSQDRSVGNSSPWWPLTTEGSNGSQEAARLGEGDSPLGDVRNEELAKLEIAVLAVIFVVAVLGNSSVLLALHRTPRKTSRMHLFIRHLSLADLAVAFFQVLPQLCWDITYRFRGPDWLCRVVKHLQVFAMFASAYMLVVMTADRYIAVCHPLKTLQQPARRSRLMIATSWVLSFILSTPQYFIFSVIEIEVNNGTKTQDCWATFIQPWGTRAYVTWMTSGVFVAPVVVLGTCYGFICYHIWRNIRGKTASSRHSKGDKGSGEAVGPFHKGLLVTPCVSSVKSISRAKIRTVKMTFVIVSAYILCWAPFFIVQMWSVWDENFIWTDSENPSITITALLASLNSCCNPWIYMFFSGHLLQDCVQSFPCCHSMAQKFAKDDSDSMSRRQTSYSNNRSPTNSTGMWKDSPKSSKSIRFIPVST
Experimental: Cell Lines. Studies were conducted with cell lines expressing rat (r) or human (h) Via, V1b, V2, or OT receptors. For the experiments with human receptors, human embryonic kidney (HEK)-flp-in cells stably expressing the lacZ-Zeocin™ fusion gene were used for expression of hV1a and hV1b. These cells were designed for use with the Flp-In™ expression vector containing the gene of interest (here hV1a or hV1b) and the Flp recombinase expression plasmid, pOG44. For hV2 and hOTR, HEK-293 cells transiently expressing hV2 were used.
Functional Cell-Based Assays.

[2] = M1 formation after IV and SC (bolus) injection in healthy rats; conditions: in vivo, s.c. (bolus) injection, rat
From the text: A similar study in healthy rats was used to evaluate the differences between metabolite formation of Compound 1 after IV bolus and SC (bolus) injection.

[3] = M1 formation, single dose subcutaneous infusion in rats; type: in vivo, rat; conditions: s.c. infusion
From the text: The incision for the mini-pump was on the cranial right side of the spine, a trocar or hemostats may be inserted to create a subcutaneous pocket, and the pump inserted into the subcutaneous pocket with the delivery port of the mini-pump pointing cranially. The doses were given into mid-dorsal area via surgical implantation of the pump filled with test article. Following insertion of the implant, a 4 cm×4 cm area surrounding the pump will be delineated and designated as the test site. The test site will be delineated and remarked as necessary thereafter.
Blood samples were collected from each rat at various timepoints, including 0.25 hour (hr), 1 hr, 3 hr, 7 hr, 24 hr, 25 hr, 27 hr, and 29 hr.

[4] = M1 formation, subcutaneous infusion in mini-pigs; design: species or system mini-pig; conditions: minipig, in vivo, sc, s.c. infusion
[5] = Effect of buffer concentration on bioavailability and M1 formation after SC (bolus) injection in rats; type: in vivo, rat; conditions: s.c. (bolus)
[6] = Safety and tolerability in healthy rats; type: in vivo, rat
Experimental: Rat models were used as a model to assess PK/PD of Compound 1.
Four adult male Sprague Dawley rats were catheterized via the carotid artery (for blood collection). […] Blood samples were collected at nominal times of 5, 10, 20, 40, 60, 90, 120, 180, 240, and 300 min after administration using an automated blood sampling system as described above. Plasma was prepared from whole blood using K2EDTA as anticoagulant. Subsequent bioanalysis of samples included compound extraction and plasma concentration determination using standard LC/MS methods.
The study was performed using six adult male Sprague Dawley rats, aged ~11 weeks. The pressure catheter was a polyurethane tubing that extended out of the device body and was inserted into the lower abdominal aorta. A postoperative injection of analgesia (flunixin, 5 mg per animal; Finadyne®, Schering-Plough) was given once immediately after implantation, and once at an interval of 24 h. The surgical wounds were disinfected with povidone iodine (Vétédine®, Vetoquinol SA) for 4 consecutive days. After surgery, the animals recovered for ~2 weeks before first study administration (day 0).
On the days of administration, animals were examined before and immediately after administration, and at least once after dosing (after the ≥4-h analysis time point) to detect any clinical signs or reaction to administration. A full clinical examination was performed weekly.

[7] = system: blood lactate; test: Blood lactate in cynomolgus monkeys after SC Compound 1; type: in vivo, cynomolgus monkey; conditions: 15-360 min
Experimental: Blood samples (0.5 mL in EDTA) were collected from a femoral or saphenous vein before dosing and at multiple times continuing out to 480 min after administration. Lactate concentration was also measured as part of PD analysis and collected as EDTA whole blood from the pre-dose, 15-, 40-, 90-, 180-, and 360-min post-administration samples immediately after collection using a Lactate Plus (Nova Biomedical) meter. For blood sample analysis, plasma was prepared from whole blood. Subsequent bioanalysis included compound extraction followed by standard LC/MS methods to determine compound concentration in each sample.

[8] = Tolerability in healthy monkeys; type: in vivo, cynomolgus monkey; conditions: non-human primates
Experimental: Clinical observations were made before and after dosing. IV administration
The data reported herein were collected over 19 dosing sessions of four animals each, using a total of six monkeys. Animals were repeat dosed in a crossover design with at least one animal receiving vehicle for each round; the animal receiving vehicle was varied between rounds. A 48- to 72-h washout period was used between dosing sessions. Animals were observed by camera for ~1 h before dosing (covering the baseline period) and up to 3 h after dosing.

[9] = system: methionine/choline-deficient (MCD) diet rats; test: ΔPP in methionine/choline-deficient (MCD) diet rats; type: in vivo, rat; conditions: for Δ PP (mean): SC, MCD diet rats

Structure (SMILES): CC[C@H](C)[C@@H]1NC(=O)[C@H](Cc2ccccc2)NC(=O)[C@@H](N)CSSC[C@@H](C(=O)N2CCC[C@H]2C(=O)N[C@@H](CCNC(=O)[C@@H](N)CCCCNC(=O)[C@H](CCCCNC(C)=O)NC(=O)CC[C@H](NC(=O)[C@H](CCCNC(=N)N)NC(=O)[C@@H]2CCCN2C(=O)[C@H](C)NC(=O)[C@H](CC(N)=O)NC(=O)[C@H](CCC(N)=O)NC(=O)[C@H](Cc2ccccc2)NC(=O)[C@@H](Cc2ccc(OC)cc2)NC(=O)Cc2ccccc2)C(N)=O)C(=O)NCC(N)=O)NC(=O)[C@H](CC(N)=O)NC(=O)[C@H](CCC(N)=O)NC1=O [Compound 1, Glycinamide, L-cysteinyl-L-phenylalanyl-L-isoleucyl-L-glutaminyl-L-asparaginyl-L-cysteinyl-L-prolyl-N4-(phenylacetyl-O-methyl-D-tyrosyl-L-phenylalanyl-L-glutaminyl-L-asparaginyl-L-alanyl-L-prolyl-L-arginyl-L-isoglutamyl-N5-acetyl-L-lysyl-L-ε-lysyl)-L-2,4-diaminobutyryl-, cyclic (1→6)-disulfide] (I: H-CFIQNCP[Dab]G-NH2 / II: PhAc-[dY](Me)FQNAPR[isoGln]K(Ac)[εLys]; disulfide I:1-I:6; amide I:8-II:C)
- Emax [1]: 30%
- metabolised [2]: 80 to 90%
- metabolised ([3]; rat, plasma, sc, 4.8 mg/kg, rats): < 20%
- adverse events ([3]; rats and mini-pigs): No relevant adverse events were reported
- metabolised [4]: < 20%
- bioavailability ([5]; about 10 mM buffer): about 13%
- bioavailability ([5]; about 100 mM buffer): about 37%
- animals with local reaction at injection site ([6]; SC 4 and 20 mg/kg): three of the six
- tolerability ([6]; SC bolus): well tolerated
- bodyweight gain ([6]; SC, four administrations up to 20 mg/kg): did not influence bodyweight gain
- deaths ([6]; SC, up to 20 mg/kg): no deaths occurred
- tolerability ([6]; single SC, conscious rats, all tested dose levels): well tolerated at all tested dose levels
- tolerability ([6]; single-dose IV bolus (cassette)): well tolerated
- blood lactate versus pre-dose [7]: not notably increased
- effect on body temperature [8]: no apparent Compound 1-related effect on body temperature
- tolerability ([8]; single-dose SC and IV bolus): well tolerated
- Δ PP (mean) ([9]; 25 μg/kg, 0 min): 0.0 mmHg
- Δ PP (mean) ([9]; 25 μg/kg, 1 min): −0.3 mmHg
- Δ PP (mean) ([9]; 25 μg/kg, 2 min): −0.8 mmHg
- Δ PP (mean) ([9]; 25 μg/kg, 3 min): −1.3 mmHg
- Δ PP (mean) ([9]; 25 μg/kg, 5 min): −1.8 mmHg
- Δ PP (mean) ([9]; 25 μg/kg, 7 min): −1.9 mmHg
- Δ PP (mean) ([9]; 25 μg/kg, 10 min): −2.1 mmHg
- Δ PP (mean) ([9]; 25 μg/kg, 15 min): −2.2 mmHg
- Δ PP (mean) ([9]; 25 μg/kg, 20 min): −2.3 mmHg
- Δ PP (mean) ([9]; 25 μg/kg, 30 min): −2.3 mmHg
- Δ PP (mean) ([9]; 25 μg/kg, 60 min): −2.2 mmHg
- Δ PP (mean) ([9]; 25 μg/kg, 90 min): −1.8 mmHg
- Δ PP (mean) ([9]; 100 μg/kg, 0 min): 0.0 mmHg
- Δ PP (mean) ([9]; 100 μg/kg, 1 min): −0.5 mmHg
- Δ PP (mean) ([9]; 100 μg/kg, 2 min): −1.2 mmHg
- Δ PP (mean) ([9]; 100 μg/kg, 3 min): −1.6 mmHg
- Δ PP (mean) ([9]; 100 μg/kg, 5 min): −2.1 mmHg
- Δ PP (mean) ([9]; 100 μg/kg, 7 min): −2.5 mmHg
- Δ PP (mean) ([9]; 100 μg/kg, 10 min): −2.5 mmHg
- Δ PP (mean) ([9]; 100 μg/kg, 15 min): −2.4 mmHg
- Δ PP (mean) ([9]; 100 μg/kg, 20 min): −2.3 mmHg
- Δ PP (mean) ([9]; 100 μg/kg, 30 min): −2.2 mmHg
- Δ PP (mean) ([9]; 100 μg/kg, 60 min): −2.0 mmHg
- Δ PP (mean) ([9]; 100 μg/kg, 90 min): −1.7 mmHg
- Δ PP (mean) ([9]; 500 μg/kg, 0 min): 0.0 mmHg
- Δ PP (mean) ([9]; 500 μg/kg, 1 min): −1.2 mmHg
- Δ PP (mean) ([9]; 500 μg/kg, 2 min): −1.9 mmHg
- Δ PP (mean) ([9]; 500 μg/kg, 3 min): −2.5 mmHg
- Δ PP (mean) ([9]; 500 μg/kg, 5 min): −2.9 mmHg
- Δ PP (mean) ([9]; 500 μg/kg, 7 min): −3.3 mmHg
- Δ PP (mean) ([9]; 500 μg/kg, 10 min): −2.9 mmHg
- Δ PP (mean) ([9]; 500 μg/kg, 15 min): −3.5 mmHg
- Δ PP (mean) ([9]; 500 μg/kg, 20 min): −3.8 mmHg
- Δ PP (mean) ([9]; 500 μg/kg, 30 min): −3.9 mmHg
- Δ PP (mean) ([9]; 500 μg/kg, 60 min): −3.4 mmHg
- Δ PP (mean) ([9]; 500 μg/kg, 90 min): −3.7 mmHg
- maximum ΔPP ([9]; SC 25 jag/kg (so in the source)): −2.3±0.2 mmHg
- maximum ΔPP ([9]; SC 100 jag/kg (so in the source)): −2.5±0.3 mmHg
- maximum ΔPP ([9]; SC 500 jag/kg (so in the source)): −3.9±0.8 mmHg
